Experimental data taken from patent US20230416249A1, “N-[2-({4-[3-(ANILINO)-4-OXO-4,5,6,7-TETRAHYDRO-1H-PYRROLO[3,2-C]PYRIDIN-2-YL]PYRIDIN-3-YL)OXY)ETHYL]PROP-2-ENAMIDE DERIVATIVES AND SIMILAR COMPOUNDS AS EGFR INHIBITORS FOR THE TREATMENT OF CANCER” (Bayer Aktiengesellschaft, priority 2020, published 2023).

Legend:
[1] = molecular target: Ba/F3-EGFR-insSVD cells (Homo sapiens, UniProt P00533, DUP768-770, cells depend on it); experiment: Ba/F3 cell survival assay (Cell Titer-Glo), EGFR-insSVD; assay type: cell-based; details: 48 h, without IL-3, 10 ng/mL EGF; read-out: BA/F3 (insSVD) IC50
Chain of Ba/F3-EGFR-insSVD cells (P00533 with tags, fused parts or gaps DUP768-770): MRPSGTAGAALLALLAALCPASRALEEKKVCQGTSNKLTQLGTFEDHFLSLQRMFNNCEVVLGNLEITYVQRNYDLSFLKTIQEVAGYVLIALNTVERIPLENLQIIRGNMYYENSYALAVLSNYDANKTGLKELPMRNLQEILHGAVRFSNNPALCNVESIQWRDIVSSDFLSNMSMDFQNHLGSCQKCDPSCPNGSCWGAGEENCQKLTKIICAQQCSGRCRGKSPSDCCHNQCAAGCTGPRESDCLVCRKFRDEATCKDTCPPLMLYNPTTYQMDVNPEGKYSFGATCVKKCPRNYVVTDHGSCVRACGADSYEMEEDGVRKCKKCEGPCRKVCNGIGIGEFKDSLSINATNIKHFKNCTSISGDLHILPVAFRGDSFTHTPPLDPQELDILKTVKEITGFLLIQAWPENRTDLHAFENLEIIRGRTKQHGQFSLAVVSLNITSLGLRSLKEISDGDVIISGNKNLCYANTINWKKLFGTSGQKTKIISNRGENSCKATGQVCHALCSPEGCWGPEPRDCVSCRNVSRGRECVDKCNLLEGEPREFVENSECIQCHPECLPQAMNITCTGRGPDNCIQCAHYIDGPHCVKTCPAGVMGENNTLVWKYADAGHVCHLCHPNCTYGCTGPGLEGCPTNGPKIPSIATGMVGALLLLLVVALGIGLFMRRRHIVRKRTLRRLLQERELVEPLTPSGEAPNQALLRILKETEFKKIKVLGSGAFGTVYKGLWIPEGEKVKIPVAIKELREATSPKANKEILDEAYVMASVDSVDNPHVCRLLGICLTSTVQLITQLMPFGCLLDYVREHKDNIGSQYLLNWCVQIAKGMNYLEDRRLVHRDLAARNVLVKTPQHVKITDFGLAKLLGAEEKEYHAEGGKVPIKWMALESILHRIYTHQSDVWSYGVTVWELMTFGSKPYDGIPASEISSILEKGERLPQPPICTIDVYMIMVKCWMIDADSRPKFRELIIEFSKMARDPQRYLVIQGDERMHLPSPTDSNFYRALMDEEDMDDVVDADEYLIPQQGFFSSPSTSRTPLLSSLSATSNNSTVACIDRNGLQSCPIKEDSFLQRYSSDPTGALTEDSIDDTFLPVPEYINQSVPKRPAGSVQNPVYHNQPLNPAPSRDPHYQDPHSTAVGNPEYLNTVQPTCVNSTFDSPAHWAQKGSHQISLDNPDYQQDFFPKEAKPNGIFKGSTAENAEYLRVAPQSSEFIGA
Experimental: (§1) 293T cells from ATCC were transfected with pBABEpuro expression constructs for WT EGFR or EGFR-insSVD, or EGFR-insSVD T790M, and pCL-Eco packaging vector using Fugene-6 transfection reagent from Promega. Plates were incubated at 37° C. for 48 h. Retrovirus was harvested by filtering the media supernatant through a 0.45 μm filter.
(§2) Ba/F3 cells purchased from DSMZ were grown in RPMI+10% FBS+10 ng/mL IL-3 and infected with filtered retroviral supernatant at a 1:2 dilution. Polybrene was added to a concentration of 8 μg/mL, plates were spun for 90 min, and incubated for 16 h at 37° C. 2 μg/mL puromycin was added to the infected cells 24 h after infection and cells were continually grown in the presence of puromycin and 10 ng/mL IL-3. Following stably expressing Ba/F3 cell lines were generated: Ba/F3-EGFR-WT, Ba/F3-EGFR-insSVD, Ba/F3-EGFR-insSVD T790M, (Ba/F3—vector-control).
(§3) For cell survival assays, Ba/F3 cells were grown to a density of 1-2 million cells per mL, spun down and resuspended in media without IL-3, and replated at a concentration 200,000-500,000 cells per mL. The cells ectopically expressing WT EGFR, EGFR-insSVD, or EGFR-insSVD T790M were plated with 10 ng/mL Millipore Culture grade EGF. The cells ectopically expressing pBABEpuro empty vector were plated with 10 ng/mL IL-3.
(§4) 2 days later, cells were plated in 50 μL in a 384 well plate at a concentration of 4000 cells per well for cells assayed in the absence of IL-3 and 2000 cells per well for cells assayed in the presence of IL-3. 100 nL of compound was added to each well using a 100 nL pin head, and plates were incubated at 37° C. for 48 h.
(§5) Cell viability was measured by adding 20 μL of Cell Titer-Glo Luminescent Cell Viability Reagent diluted 1:3 in PBS. Plates were sealed with Perkin Elmer Top-Seal, inverted several times to mix, and immediately centrifuged at 1000 rpm for 2 min. Plates were incubated in low light conditions for 8-10 min and luminescence was measured.

[2] = molecular target: T1, mutEGFR (D770_N771insSVD) (Homo sapiens, UniProt P00533, DUP768-770); experiment: Exon20-Mutant-EGFR(D770_N771insSVD) kinase assay (TR-FRET); assay type: biochemical; details: GST-EGFR ins SVD, 2 mM ATP, 15 min pre-incubation
T1 construct: GST-EGFR #3 (SVD between D770 and N771); made in house; host or cells: Sf9 insect cells (baculovirus)
T1 sequence (P00533 with tags, fused parts or gaps DUP768-770): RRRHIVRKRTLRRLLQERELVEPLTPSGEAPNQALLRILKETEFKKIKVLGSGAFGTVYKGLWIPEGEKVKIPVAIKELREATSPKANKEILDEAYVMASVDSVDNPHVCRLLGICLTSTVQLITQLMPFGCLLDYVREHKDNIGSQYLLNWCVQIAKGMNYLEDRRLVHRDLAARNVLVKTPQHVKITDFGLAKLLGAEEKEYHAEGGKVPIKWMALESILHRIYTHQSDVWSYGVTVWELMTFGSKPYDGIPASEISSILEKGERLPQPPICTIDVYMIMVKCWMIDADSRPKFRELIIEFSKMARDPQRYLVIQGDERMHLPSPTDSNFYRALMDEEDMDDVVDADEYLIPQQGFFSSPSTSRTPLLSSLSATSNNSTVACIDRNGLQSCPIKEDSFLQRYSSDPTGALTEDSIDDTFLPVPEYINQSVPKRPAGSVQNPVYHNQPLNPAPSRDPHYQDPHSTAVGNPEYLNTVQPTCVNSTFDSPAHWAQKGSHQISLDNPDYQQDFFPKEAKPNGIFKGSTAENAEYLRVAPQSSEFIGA
Description: Inhibitory activity of compounds of the present invention against an Epidermal Growth Factor Receptor (EGFR) with an insertion of the amino acids sequence SVD between D770 and N771 was quantified employing the TR-FRET based kinase activity assay as described in the following paragraphs.
A recombinant fusion protein of N-terminal Glutathion-S-Transferase (GST) and a fragment of human EGFR variant (amino acids R669 to A1210 with insertion of the amino acids sequence SVD between D770 and N771 (“EGFR ins SVD”), expressed in Sf9 insect cells and purified via affinity chromatography using Glutathion Sepharose as described above, was used as a kinase. As substrate for the kinase reaction the biotinylated peptide biotin-Ahx-AEEEEYFELVAKKK (SEQ ID NO: 6) (C-terminus in amide form) was used which can be purchased e.g. form the company Biosynthan GmbH (Berlin-Buch, Germany).
For the assay 50 nl of a 100-fold concentrated solution of the test compound in DMSO was pipetted into either a black low volume 384 well microtiter plate or a black 1536 well microtiter plate (both Greiner Bio-One, Frickenhausen, Germany), 2 μl of a solution of EGFR in aqueous assay buffer [50 mM Hepes pH 7.0, 10 mM MgCl2, 1 mM dithiothreitol, 0.5 mM EGTA, 0.3 mM activated sodium ortho-vanadate, 0.005% (w/v) bovine serum albumin, 0.005% (v/v) Tween-20] were added and the mixture was incubated for 15 min at 22° C. to allow pre binding of the test compounds to the enzyme before the start of the kinase reaction. Then the kinase reaction was started by the addition of 3 μL of a solution of adenosine tri phosphate (ATP, 3.33 mM=>final conc. in the 5 μL assay volume is 2 mM) and substrate (1.67 μM=>final conc. in the 5 μL assay volume is 1 μM) in assay buffer and the resulting mixture was incubated for a reaction time of 30 min at 22° C. The concentration of EGFR was adjusted depending of the activity of the enzyme lot and was chosen appropriate to have the assay in the linear range, typical concentration was 15 pg/μl. The reaction was stopped by the addition of 3 μl of a solution of HTRF detection reagents (83.3 nM streptavidine-XL665 [Cisbio Bioassays, Codolet, France] and 1.67 nM PT66-Tb-Cryptate, a terbium-cryptate labelled anti-phospho-tyrosine antibody from Cisbio Bioassays [instead of the PT66 Tb cryptate PT66 Eu Chelate from Perkin Elmer can also be used]) in an aqueous EDTA-solution (133.3 mM EDTA, 0.2% (w/v) bovine serum albumin in 50 mM HEPES pH 7.5).
The resulting mixture was incubated 1 h at 22° C. to allow the binding of the biotinylated phosphorylated peptide to the streptavidine-XL665 and the PT66-Tb-Cryptate. Subsequently the amount of phosphorylated substrate was evaluated by measurement of the resonance energy transfer from the PT66-Tb-Cryptate to the streptavidine-XL665. Therefore, the fluorescence emissions at 620 nm and 665 nm after excitation at 337 nm were measured in a HTRF reader, e.g. a Pherastar (BMG Labtechnologies, Offenburg, Germany) or a Viewlux (Perkin-Elmer). The ratio of the emissions at 665 nm and at […] was taken as the measure for the amount of phosphorylated substrate. The data were normalised (enzyme reaction without inhibitor=0% inhibition, all other assay components but no enzyme=100% inhibition).

[3] = molecular target: Ba/F3-EGFR-WT cells (Homo sapiens, UniProt P00533); experiment: Ba/F3 cell survival assay (Cell Titer-Glo), WT EGFR; assay type: cell-based; details: 48 h, without IL-3, 10 ng/mL EGF; read-out: BA/F3 (wild type) IC50
Chain of Ba/F3-EGFR-WT cells (P00533 whole entry, change not shown): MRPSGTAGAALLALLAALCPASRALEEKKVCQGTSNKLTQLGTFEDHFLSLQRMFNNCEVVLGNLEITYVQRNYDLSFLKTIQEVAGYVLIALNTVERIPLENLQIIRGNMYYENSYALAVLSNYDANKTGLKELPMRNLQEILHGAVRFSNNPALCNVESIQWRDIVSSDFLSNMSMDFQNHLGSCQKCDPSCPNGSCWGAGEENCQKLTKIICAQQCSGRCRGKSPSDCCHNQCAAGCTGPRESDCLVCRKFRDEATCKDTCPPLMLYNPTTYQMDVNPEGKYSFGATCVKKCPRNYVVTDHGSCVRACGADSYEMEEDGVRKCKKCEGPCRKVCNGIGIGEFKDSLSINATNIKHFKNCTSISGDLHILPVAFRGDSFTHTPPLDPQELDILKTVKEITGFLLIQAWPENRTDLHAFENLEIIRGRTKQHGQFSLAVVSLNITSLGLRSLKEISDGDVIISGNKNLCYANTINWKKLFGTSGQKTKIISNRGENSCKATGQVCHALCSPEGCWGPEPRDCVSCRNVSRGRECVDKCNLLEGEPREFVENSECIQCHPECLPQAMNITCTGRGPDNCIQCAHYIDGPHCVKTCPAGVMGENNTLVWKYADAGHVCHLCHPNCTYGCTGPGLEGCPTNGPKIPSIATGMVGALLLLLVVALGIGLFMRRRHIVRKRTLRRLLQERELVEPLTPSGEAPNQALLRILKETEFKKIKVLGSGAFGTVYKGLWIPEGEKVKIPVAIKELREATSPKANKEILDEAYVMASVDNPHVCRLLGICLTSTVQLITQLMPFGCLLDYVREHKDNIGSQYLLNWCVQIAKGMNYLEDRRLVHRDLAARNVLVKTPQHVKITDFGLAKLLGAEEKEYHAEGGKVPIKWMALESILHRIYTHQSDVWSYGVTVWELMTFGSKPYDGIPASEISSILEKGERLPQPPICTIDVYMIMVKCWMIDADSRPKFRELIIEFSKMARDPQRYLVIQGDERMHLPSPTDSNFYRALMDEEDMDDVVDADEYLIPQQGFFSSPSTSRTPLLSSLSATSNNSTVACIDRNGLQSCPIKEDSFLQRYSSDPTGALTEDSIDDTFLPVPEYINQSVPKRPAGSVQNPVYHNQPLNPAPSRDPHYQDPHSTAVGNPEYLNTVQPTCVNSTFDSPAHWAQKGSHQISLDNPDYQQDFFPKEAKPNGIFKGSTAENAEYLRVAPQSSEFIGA
Experimental: as §1, §2, §3, §4, §5

[4] = molecular target: Ba/F3-EGFR-E746_A750del T790M cells (Homo sapiens, UniProt P00533, DEL746-750/T790M, cells depend on it); experiment: Ba/F3 cell survival assay (Cell Titer-Glo), EGFR-E746_A750del T790M; assay type: cell-based; details: 48 h, without IL-3, 10 ng/mL EGF; read-out: BA/F3 (E746_A750del T790M) IC50
Experimental: as §1, with “EGFR-L858R, EGFR-E746_A750del, EGFR-L858R T790M,” for “WT EGFR”, “EGFR-E746_A750del” for “EGFR-insSVD, or EGFR-insSVD”
as §2, with “Ba/F3-EGFR-L858R, Ba/F3-EGFR-E746_A750del, Ba/F3-EGFR-L858R” for “Ba/F3-EGFR-WT, Ba/F3-EGFR-insSVD, Ba/F3-EGFR-insSVD”, “or Ba/F3-EGFR-E746_A750del T790M.” for “(Ba/F3—vector-control).”
as §3, with “EGFR-L858R, EGFR-E746_A750del, EGFR-L858R T790M,” for “WT EGFR, EGFR-insSVD,”, “EGFR-E746_A750del” for “EGFR-insSVD”
as §4, §5

[5] = molecular target: Ba/F3-EGFR-L858R T790M cells (Homo sapiens, UniProt P00533, T790M/L858R, cells depend on it); experiment: Ba/F3 cell survival assay (Cell Titer-Glo), EGFR-L858R T790M; assay type: cell-based; details: 48 h, without IL-3, 10 ng/mL EGF; read-out: BA/F3 (L858R T790M) IC50
Chain of Ba/F3-EGFR-L858R T790M cells (P00533 whole entry T790M/L858R): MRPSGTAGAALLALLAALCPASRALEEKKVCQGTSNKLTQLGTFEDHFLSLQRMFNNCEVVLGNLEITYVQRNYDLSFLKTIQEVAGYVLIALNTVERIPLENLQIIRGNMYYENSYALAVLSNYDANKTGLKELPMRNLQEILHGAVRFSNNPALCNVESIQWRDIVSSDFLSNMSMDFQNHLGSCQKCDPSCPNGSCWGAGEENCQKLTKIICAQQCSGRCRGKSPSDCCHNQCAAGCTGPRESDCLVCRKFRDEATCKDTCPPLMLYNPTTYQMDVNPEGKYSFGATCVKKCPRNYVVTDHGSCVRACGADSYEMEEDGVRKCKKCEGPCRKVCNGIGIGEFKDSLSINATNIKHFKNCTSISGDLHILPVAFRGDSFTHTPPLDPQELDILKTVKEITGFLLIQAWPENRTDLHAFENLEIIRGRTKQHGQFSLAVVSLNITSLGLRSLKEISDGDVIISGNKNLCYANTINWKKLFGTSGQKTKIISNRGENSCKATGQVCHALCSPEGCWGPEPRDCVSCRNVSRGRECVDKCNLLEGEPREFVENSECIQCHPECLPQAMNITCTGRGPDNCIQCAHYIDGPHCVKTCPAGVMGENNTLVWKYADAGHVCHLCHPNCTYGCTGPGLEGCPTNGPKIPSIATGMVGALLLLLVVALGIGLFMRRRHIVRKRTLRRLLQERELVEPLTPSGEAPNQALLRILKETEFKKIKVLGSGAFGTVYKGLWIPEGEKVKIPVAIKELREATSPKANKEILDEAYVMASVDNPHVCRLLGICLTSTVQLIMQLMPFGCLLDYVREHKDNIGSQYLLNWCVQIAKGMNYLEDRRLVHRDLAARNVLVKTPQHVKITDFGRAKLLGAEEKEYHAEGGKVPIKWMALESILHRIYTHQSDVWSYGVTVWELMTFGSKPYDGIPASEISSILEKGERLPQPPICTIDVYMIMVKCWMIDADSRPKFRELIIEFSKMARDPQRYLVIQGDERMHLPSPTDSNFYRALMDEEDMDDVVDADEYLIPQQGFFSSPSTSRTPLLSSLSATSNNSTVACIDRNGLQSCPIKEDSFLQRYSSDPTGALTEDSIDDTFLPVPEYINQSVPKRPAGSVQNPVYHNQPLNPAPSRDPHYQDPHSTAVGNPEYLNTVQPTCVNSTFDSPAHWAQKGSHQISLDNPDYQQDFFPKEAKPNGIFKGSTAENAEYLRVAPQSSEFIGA
Experimental: as §1, with “EGFR-L858R, EGFR-E746_A750del, EGFR-L858R T790M,” for “WT EGFR”, “EGFR-E746_A750del” for “EGFR-insSVD, or EGFR-insSVD”
as §2, with “Ba/F3-EGFR-L858R, Ba/F3-EGFR-E746_A750del, Ba/F3-EGFR-L858R” for “Ba/F3-EGFR-WT, Ba/F3-EGFR-insSVD, Ba/F3-EGFR-insSVD”, “or Ba/F3-EGFR-E746_A750del T790M.” for “(Ba/F3—vector-control).”
as §3, with “EGFR-L858R, EGFR-E746_A750del, EGFR-L858R T790M,” for “WT EGFR, EGFR-insSVD,”, “EGFR-E746_A750del” for “EGFR-insSVD”
as §4, §5

SMILES | GI50 [1] [nM] | IC50 [2] [nM] | GI50 [3] [nM] | GI50 [4] [nM] | GI50 [5] [nM]
COc1c(Cl)cccc1Nc1c(-c2ccncc2OCCN(C)C(=O)/C=C/CN(C)C)[nH]c2c1C(=O)NC1(CCC1)C2 [Example 10, (2E)-N-[2-({4-[3′-(3-chloro-2-methoxyanilino)-4′-oxo-1′,4′,5′,7′-tetrahydrospiro[cyclobutane-1,6′-pyrrolo[3,2-c]pyridin]-2′-yl]pyridin-3-yl}oxy)ethyl]-4-(dimethylamino)-N-methylbut-2-enamide] | 205 | 3.55 | 1660 | 651 | > 1000
C=CC(=O)N(C)CCOc1cnccc1-c1[nH]c2c(c1Nc1cccc(Cl)c1OC)C(=O)NC1(CCC1)C2 [Example 11, N-[2-({4-[3′-(3-chloro-2-methoxyanilino)-4′-oxo-1′,4′,5′,7′-tetrahydrospiro[cyclobutane-1,6′-pyrrolo[3,2-c]pyridin]-2′-yl]pyridin-3-yl}oxy)ethyl]-N-methylprop-2-enamide] | 12.2 | 0.464 | 309 | 25.8 | 198
C=CC(=O)N(C)CCOc1cnccc1-c1[nH]c2c(c1Nc1cccc(Cl)c1OC)C(=O)NC(C)(C)C2 [Example 12, N-[2-({4-[3-(3-chloro-2-methoxyanilino)-6,6-dimethyl-4-oxo-4,5,6,7-tetrahydro-1H-pyrrolo[3,2-c]pyridin-2-yl]pyridin-3-yl}oxy)ethyl]-N-methylprop-2-enamide] | 17.7 | 0.583 | 330 | 47.4 | 276
C=CC(=O)N(C)CCOc1cnccc1-c1[nH]c2c(c1Nc1ccccc1OC(F)F)C(=O)NCC2 [Example 14, N-(2-{[4-(3-{[2-(difluoromethoxy)phenyl]amino}-4-oxo-4,5,6,7-tetrahydro-1H-pyrrolo[3,2-c]pyridin-2-yl)pyridin-3-yl]oxy}ethyl)-N-methylprop-2-enamide] | 35.4 | 0.571 | 652 | 29.1 | 397
